In ChEMBL document CHEMBL5726613, “5-(N-fused tricyclic aryl tetrahydroisoquinolin-6-yl) pyridin-3-yl acetic acid derivatives as inhibitors of human immunodeficiency virus replication” (2019):

Assay: Inhibition of HIV Replication: A recombinant NL-RLuc proviral clone was constructed in which a section of the nef gene from NL4-3 was replaced with the Renilla Luciferase gene. This virus is fully infectious and can undergo multiple cycles of replication in cell culture. In addition, the luciferous reporter provides a simple and easy method for quantitating the extent of virus growth and consequently, the antiviral activity of test compounds. The plasmid pNLRLuc contains the proviral NL-Rluc DNA cloned into pUC18 at the PvuII site. The NL-RLuc virus was prepared by transfection of 293T cells with the plasmid pNLRLuc. Transfections were performed using the LipofectAMINE PLUS kit from Invitrogen (Carlsbad, Calif.) according to the manufacturer and the virus generated was titered in MT-2 cells. For susceptibility analyses, the titrated virus was used to infect MT-2 cells in the presence of compound, and after 5 days of incubation, cells were processed and quantitated for virus growth by the amount of expressed luciferase. Assay media was RPMI 1640 supplemented with 10% heat inactivated fetal bovine serum (FBS), 100 units/ml penicillin G/100 units/ml streptomycin, 10 mM HEPES buffer pH 7.55 and 2 mM L-glutamine. The results from at least 2 experiments were used to calculate the EC50 values. Luciferase was quantitated using the Dual Luciferase kit from Promega (Madison, Wis.). Susceptibility of viruses to compounds was determined by incubation in the presence of serial dilutions of the compound. The 50% effective concentration (EC50) was calculated by using the exponential form of the median effect equation where (Fa)=1/[1+(ED50/drug conc.)m] (Johnson Va., Byington R T. Infectivity Assay. In Techniques in HIV Research. ed. Aldovini A, Walker B D. 71-76. New York: Stockton Press. 1990).
Type: cell-based
Details: HEK-293T

Structure (SMILES) | EC50 [nM]
Cc1nc(C)c([C@H](OC(C)(C)C)C(=O)O)c(N2CCC(C)(C)CC2)c1-c1ccc2c(c1)CCN(c1ncnc3c1oc1ccccc13)C2 | 1
Cc1ccc2c(c1)[nH]c1nc(N3CCc4cc(-c5c(C)nc(C)c([C@H](OC(C)(C)C)C(=O)O)c5N5CCC(C)(C)CC5)ccc4C3)nc(Cl)c12 | 5
Cc1nc(C)c([C@H](OC(C)(C)C)C(=O)O)c(N2CCC(C)(C)CC2)c1-c1ccc2c(c1)CCN(c1ncnc3c1sc1ccccc13)C2 | 4
Cc1nc(C)c([C@H](OC(C)(C)C)C(=O)O)c(N2CCC(C)(C)CC2)c1-c1ccc2c(c1)CCN(c1ncnc3[nH]c4ccccc4c13)C2 | 5
Cc1nc(C)c([C@H](OC(C)(C)C)C(=O)O)c(N2CCC(C)(C)CC2)c1-c1ccc2c(c1)CCN(c1ncnc3c1oc1ccc(F)cc13)C2 | 2
Cc1nc(C)c([C@H](OC(C)(C)C)C(=O)O)c(N2CCC(C)(C)CC2)c1-c1ccc2c(c1)CCN(c1ncnc3c1oc1cccc(F)c13)C2 | 3
CCn1c2ccc(C)cc2c2ncnc(N3CCc4cc(-c5c(C)nc(C)c([C@H](OC(C)(C)C)C(=O)O)c5N5CCC(C)(C)CC5)ccc4C3)c21 | 45
Cc1nc(C)c([C@H](OC(C)(C)C)C(=O)O)c(N2CCC(C)(C)CC2)c1-c1ccc2c(c1)CCN(c1ncnc3sc4ccccc4c13)C2 | 5
Cc1nc(C)c([C@H](OC(C)(C)C)C(=O)O)c(N2CCC(C)(C)CC2)c1-c1ccc2c(c1)CCN(c1ncnc3c1[nH]c1ccccc13)C2 | 24
Cc1nc(C)c([C@H](OC(C)(C)C)C(=O)O)c(N2CCC(C)(C)CC2)c1-c1ccc2c(c1)CCN(c1ncnc3c1oc1ncccc13)C2 | 1
Cc1nc(C)c([C@H](OC(C)(C)C)C(=O)O)c(N2CCC(C)(C)CC2)c1-c1ccc2c(c1)CCN(c1ccc3ccc4cccnc4c3n1)C2 | 3
CCOc1cccc2oc3c(N4CCc5cc(-c6c(C)nc(C)c([C@H](OC(C)(C)C)C(=O)O)c6N6CCC(C)(C)CC6)ccc5C4)ncnc3c12 | 1
Cc1ccc2[nH]c3c(N4CCc5cc(-c6c(C)nc(C)c([C@H](OC(C)(C)C)C(=O)O)c6N6CCC(C)(C)CC6)ccc5C4)ncnc3c2c1 | 13
Cc1nc(C)c([C@H](OC(C)(C)C)C(=O)O)c(N2CCC(C)(C)CC2)c1-c1ccc2c(c1)CCN(c1nc3ccccc3c3ccccc13)C2 | 31
